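Briefly, cells in 96-well plates were exposed to five compound concentrations for 48 h, and endpoints were estimated by linear interpolation. TGI: total growth inhibition.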
How the values were obtained:
Test in all cases: NCI-60 cell line screen, 48 h
[1] = system: M19-MEL melanoma
[2] = system: KM20L2 colon
[3] = system: LXFL 529 NSCLC
[4] = system: HOP-18 NSCLC
[5] = system: DMS 273 small cell lung
[6] = system: XF 498 CNS
[7] = system: DLD-1 colon
[8] = system: SNB-78 CNS
[9] = system: DMS 114 small cell lung
[10] = system: RXF-631 renal

Compound | TGI [1] [µM] | TGI [2] [µM] | TGI [3] [µM] | TGI [4] [µM] | TGI [5] [µM] | TGI [6] [µM] | TGI [7] [µM] | TGI [8] [µM] | TGI [9] [µM] | TGI [10] [µM]
CC(=O)C(CN(C)C)C(c1ccccc1)c1c(O)c2ccccc2oc1=O (stereo not given) | > 100 | > 100 | > 100 | > 100 | > 100 | > 100 | > 100 | > 100 | > 100 | 
O=C(Nc1cc(Cl)cc(Cl)c1)/C(Cc1nc2ccccc2[nH]c1=O)=N/NC(=O)c1ccncc1 | > 100 | > 100 | > 100 |  |  |  | > 100 | > 100 | > 100 | > 100
O=S(=O)(c1ccccc1)n1cc(C[P+](c2ccccc2)(c2ccccc2)c2ccccc2)c2ccccc21 | 15.9 | 16.6 | 8.26 |  | 10.2 | 12.1 | 11 | 20.7 | 14.4 | 
NC(=O)N/N=C(/Cc1nc2ccc(C(=O)c3ccccc3)cc2[nH]c1=O)C(=O)Nc1ccc(C(F)(F)F)cc1[N+](=O)[O-] | > 100 | > 100 | > 100 | > 100 | > 100 | > 100 | > 100 | > 100 | > 100 | > 100
C[C@@H]1C2=CC[C@@]3(C)C(CCC3[C@H](C)[C@H]3C[C@@]4(C)O[C@@](c5cccnc5)(O3)OC4(C)C)[C@@H]2C2OC2[C@@]12CCC(=O)O2 (stereo not given in full) | > 100 | 96.2 | > 100 | 87.1 | > 100 |  | > 100 | > 100 | > 100 | 
CC1(C)OCC([C@H]2CC23SCCCS3)O1 (stereo not given in full) |  | > 100 | > 100 | > 100 | > 100 | > 100 | > 100 | > 100 | > 100 | 
CC1(S)CC2C(CC1Sc1ccccc1)C2(C)C (stereo not given) | > 100 |  | > 100 | > 100 | > 100 | > 100 | > 100 | > 100 | > 100 | 
NCCCCC(=O)c1cccnc1 | > 100 | > 100 | > 100 | > 100 | > 100 | > 100 | > 100 | > 100 | > 100 | 
Cc1cnc2c(c1)C(=O)C1=C(OC(C)(C)CC1O)C2=O (stereo not given) | 9.86 | 32.5 | 29.9 | 29.3 | 25.4 | 34 | 33.5 |  | 22.4 | 
CN(C)CC1CCCCCCCCCC(CN(C)C)C1=O (stereo not given) | > 100 | > 100 | > 100 | > 100 | > 100 | > 100 | > 100 | > 100 | > 100 | > 100

Source: PubChem BioAssay (NCI)
